# In US20190167771A1, “CONTROL ANGIOGENESIS BY REGULATING PHOSPHORYLATION OF SERYL-tRNA SYNTHETASE (SerRS)” (The Scripps Research Institute, priority 2016, published 2019):
# Test system: MDA-MB-231 cells
# Experiment: MDA-MB-231 tumor xenograft model, tumor angiogenesis and growth
# Format: in vivo, mouse
# Conditions: for tumor angiogenesis (CD31 staining): MDA-MB-231 stably transfected with human SerRS gene (~10-fold overexpression), NSG mice, two weeks
# Excerpt: In FIG. 5A, human breast cancer cells MDA-MB-231 were stably transfected with human wild type (SerRS^WT) and mutant SerRS (SerRS^AA, SerRS^DD). The expression of SerRS was monitored by immunoblot. In FIGS. 5B-C, the engineered MDA-MB-231 cells (10^6 per mouse) were implanted into mouse fat pad in mammal glands to form tumor xenografts. 14 days later, tumor xenografts were excised and subjected to immunohistochemistry for CD31 (FIG. 5B) and subsequent quantification of blood vessels (FIG. 5C) (n=5-6). In FIGS. 5D-F, MDA-MB-231 cells (10^6 per mouse) stably transfected with SerRS^WT, SerRS^AA, HIF1-specific shRNA (HIF^KD), both SerRS^AA and HIF^KD or empty vector were implanted into mouse fat pad in mammal glands. The sizes of the tumor xenografts were measured until the mice were sacrificed on 35 days (FIG. 5D) and the tumor angiogenesis was measured by immunohistochemistry for CD31 (FIG. 5E) and VEGFA (FIG. 5F) (n=4-10). Scale bars represent 100 μm.
# […] MDA-MB-231 cells stably transfected with vectors expressing wild type human SerRS, SerRS^S101A/S241A, or SerRS^S101D/S241D were subcutaneously injected into the mammal glands of 6-8-week-old female NOD.Cg-Prkdc^scidIl2rg^tmJWjl/SzJ mice (six mice in each group) (Jackson Laboratory). 14 days after injection, the tumor xenograft were separated from mice and frozen in Tissue-Tek® OCT compound for cryostat sectioning.
# 5-μm sections from freshly frozen tumor xenograft and matrigel plugs were treated with acetone and 3% H2O2 to block endogenous peroxidase. After 3-5 times wash and goat serum block, the sections were incubated with an anti-CD31 antibody (1:3000; Cell Signaling Technology) overnight at 4° C. The blood vessels were counted in 5-10 random viable fields (120×) in tumor xenograft samples and microvessel density in matrigel plugs was quantified by measuring the CD31 staining density using Image J software. To detect the hypoxia, we incubated the slides with anti-HIF1α antibody (1:100; Novus Biologicals).
# This example describes experiments studying the activity of SerRS^S101A/S241A and the effect of SerRS phosphorylation in hypoxia-induced angiogenesis in mammal.
# Because hypoxia-induced angiogenesis is critical for solid tumor growth, experiments were performed to determine if hypoxia-induced SerRS phosphorylation/inactivation is important for tumor angiogenesis. Human breast cancer cells MDA-MB-231 were stably transfected with human SerRS^WT, SerRS^S101A/S241A, or SerRS^S101D/S241D gene to give high levels of overexpression (˜10-fold) compare to that of the endogenous protein (FIG. 4D). The engineered cells were implanted subcutaneously into the mammal glands of immune deficient NOD scid gamma (NSG) mice. Two weeks later, the vasculature in the tumor xenografts were examined by CD31 staining (FIGS. 4E and 4F). […]
substance,measurement,setting,value
"SerRS^S101A/S241A: phosphorylation-deficient human SerRS double mutant, serine 101 and 241 to alanine, SEQ ID NO: 4 (mouse version in matrigel assay)",tumor angiogenesis (CD31 staining),,much stronger inhibition of angiogenesis compared to SerRS^WT
same,angiogenesis and tumor growth compared with HIF-1 knockdown,"murine model of triple negative human breast cancer, overexpression",suppress angiogenesis and tumor growth much more robustly than the knockdown of HIF-1
"SerRS^WT: wildtype human seryl-tRNA synthetase protein, SEQ ID NO: 1 (mouse wild type used in the 3B11 matrigel assay)",tumor angiogenesis (CD31 staining),,suppressed tumor angiogenesis
"SerRS^S101D/S241D: SerRS with double substitutions of S101 and S241 with aspartic acid, mimics the phosphorylated SerRS",tumor angiogenesis (CD31 staining),,strong activity in promoting tumor angiogenesis
